# Data reported in US9359196B2, “Antiproliferative compositions comprising curcumin analogs and methods of producing and using same” (The Board of Regents of the University of Oklahoma, priority 2009, dated 2016).
# How the values were obtained:
# [1] = Phase solubility analysis with HPβCD; type: physicochemical
# Protocol: CLEFMA was synthesized and characterized according to the methods described in Example 1. A phase solubility analysis of CLEFMA was performed according to the published method [Higuchi et al., 1965], and ICs of CLEFMA with HPβCD in the solution phase were prepared as reported previously [Agashe et al., 2010]. Briefly, an excess of CLEFMA was added to 5 ml of HPβCD solution (1 g/ml). The mixture was continuously agitated on a shaker incubator at 25° C. for 72 h. After allowing settling of coarse particulate matter for 6 h, the supernatant was centrifuged at 14,000 rpm for 15 min to obtain a clear supernatant free of any insoluble material. The solution was passed through a sterile 0.22 μm cellulose acetate filter, and the amount of HPβCD-solubilized CLEFMA was estimated spectrophotometrically at 320 nm. The phase solubility diagram was constructed by plotting the estimated CLEFMA concentration against HPβCD concentrations. The stability constant was calculated from the phase diagram using the following equation— K1:1=Slope/[S0(1−Slope)], where S0 is CLEFMA solubility in the absence of HPβCD
# The complexation efficiency (CE) was calculated as a product of S0 and K1:1
# [2] = system: CCL-151 normal lung fibroblasts; experiment: Reactive oxygen species assay (DCFH-DA) in CCL-151 normal lung fibroblasts; type: cell-based
# Protocol: Reactive oxygen species (ROS) assay: The CLEFMA-induced generation of ROS in H441 and CCL-151 cells was measured using the OxiSelect assay kit (Cell Biolabs, Inc., San Diego, Calif.). Briefly, the cells were cultured in 96-well plates, and the cell-permeable fluorogenic probe 2′,7′-dichlorodihydrofluorescin diacetate (DCFH-DA) was added to the wells and the plate was incubated for 30-60 min. The wells were washed thrice with PBS and treated with CLEFMA in culture medium for 24 and 48 h. After the incubation period, the medium was removed and the cells were gently washed 2-3 times with PBS, and the fluorescence, indicating ROS activity, was measured at 480 nm/530 nm (excitation/emission wavelengths) using the Cytoflour 2300 (Millipore, Billerica, Mass.).
# H441 cells = experiment: Cell proliferation assay in H441 cells (hexosaminidase), Example 3; type: cell-based, human
# Protocol: Cell proliferation assay: CLEFMA was synthesized and analyzed for purity by the methods detailed elsewhere. Doxorubicin (DOX, GBiosciences, Maryland Heights, Mo.), Paclitexal (PAX, EMD Chemicals, Gibbstown, N.J.), Curcumin (CUR, Sigma, St. Louis, Mo.) and Gemcitabine (GMCB, Acros Organics, Morris Plains, N.J.) were obtained from commercial sources. For cell proliferation assays, the cells were seeded in 96-well, flat-bottom tissue culture plates at a density of 5,000 cells per well. The cells were allowed to adhere and grow overnight, followed by their treatment with drugs (0-20 μM). All drugs were added as solutions in dimethylsulfoxide (DMSO) filtered through 0.2-μm nylon filters; control wells received identical amounts of DMSO without any drugs. The inhibition of cell proliferation was determined after 24-48 h by measuring the decrease in hexosaminidase activity as described by Landegren [Landegren, 1984]; para-nitrophenol-N-acetyl-beta-D-glucosaminide was used as a substrate for the hexosaminidase enzyme. To assess the effect of antioxidants, the cells were simultaneously treated with catalase (CAT, 1000 U), superoxide dismutase (SOD, 500 U) and N-acetylcysteine (NAC, 1 mM). A non-toxic concentration of CAT (Worthington, N.J.), SOD (Sigma, St. Louis, Mo.) and NAC (Enzo Life Sciences, Plymouth Meeting, Pa.) was established in H441 cells prior to these experiments.
# [3] = system: PANC-1 (pancreatic cancer) cells; experiment: Cell proliferation study in PANC-1 cells; type: cell-based
# Protocol: Cell Culture and drug treatment: Human lung adenocarcinoma cell line NCI-H441 (ATCC Number: HTB-174) was obtained from the American Type Culture Collection (Manassas, Va.). H441 cells were maintained at 37° C. with 5% CO2 in McCoy's 5A Medium (Invitrogen, Carlsbad, Calif.) supplemented with 5% heat-inactivated fetal bovine serum (FBS). All media contained gentamicin at 50 μg/ml (GIBCO Laboratories, Grand Island, N.Y.). Other cells lines (PANC-1, MiaPaCa-2 and PC-3) were also similarly maintained, except that the cell culture medium was RPMI 1640 instead of McCoy's.
# To evaluate the anti-proliferative activity of synthesized bis(2-fluorobenzylidene)-4-piperidone and its derivatives, the cells were seeded in 96-well flat-bottom tissue culture plates at a density of 10×10^3 cells per well. The cells were allowed to attach and grow overnight. The test compounds were solubilized in dimethyl sulfoxide (DMSO), filtered through 0.2 μm nylon filter and added to cells at 1, 10, 25 and 100 μM concentrations in culture medium supplemented with 5% FBS. […]
# Cell Proliferation: The total number of cells after the treatment period was estimated by the hexosaminidase assay. […] The absorbance was measured at 405 nm. […] The data were analyzed as percent of control, where the control wells were treated with equivalent amounts of DMSO alone, and the analyzed data was presented as average±standard error of mean. […]
structure (smiles),measurement,setting,value
"O=C(O)C=CC(=O)N1CC(=Cc2ccccc2Cl)C(=O)C(=Cc2ccccc2Cl)C1 [Compound 29, 4-[3,5-Bis-(2-chlorobenzylidene)-4-oxo-piperidin-1-yl]-4-oxo-2-butenoic acid]",stability constant of the complex with HPβCD,[1]; 25° C.,0.0126 M⁻¹
same,complexation efficiency,[1]; product of S0 and K1:1,approximately 0.57
same,ROS production,[2],did not increase ROS production in normal lung fibroblasts
same,"antiproliferative activity versus PAX, GMCB, DOX, CUR",H441 cells; 10 and 20 μM,antiproliferative activity comparable to that shown by these drugs
same,"effect of co-administered CAT, SOD, NAC on cytotoxicity",H441 cells; CLEFMA 10 and 20 μM,partially rescue CLEFMA-induced cytotoxicity
same,potency of antiproliferative action,[3],enhanced the potency of antiproliferative action
